Reference: PubChem BioAssay (NCI)
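The compound was tested at five concentrations on cells cultured in 96-well plates, with a 48-hour exposure period. Definition used: TGI = concentration required for complete inhibition of growth.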

Tests used:
Assay in all cases: inhibition of tumour cell growth, NCI panel, 48 h
[1] = test system: 786-0 renal
[2] = test system: A549 NSCLC
[3] = test system: ACHN renal
[4] = test system: BT-549 breast
[5] = test system: CAKI-1 renal
[6] = test system: COLO 205 colon
[7] = test system: DU-145 prostate
[8] = test system: EKVX NSCLC
[9] = test system: HCC-2998 colon
[10] = test system: HCT-116 colon
[11] = test system: HCT-15 colon
[12] = test system: HL-60(TB) leukemia
[13] = test system: HOP-62 NSCLC
[14] = test system: HOP-92 NSCLC
[15] = test system: HS 578T breast
[16] = test system: HT29 colon
[17] = test system: IGROV1 ovarian
[18] = test system: K-562 leukemia
[19] = test system: KM12 colon
[20] = test system: LOX IMVI melanoma
[21] = test system: M14 melanoma
[22] = test system: MALME-3M melanoma
[23] = test system: MCF7 breast
[24] = test system: MDA-MB-231 breast
[25] = test system: MDA-MB-435
[26] = test system: MDA-N
[27] = test system: MOLT-4 leukemia
[28] = test system: NCI-H226 lung
[29] = test system: NCI-H23 lung
[30] = test system: NCI-H460 lung
[31] = test system: NCI-H522 lung
[32] = test system: NCI/ADR-RES ovarian
[33] = test system: OVCAR-3 ovarian
[34] = test system: OVCAR-4 ovarian
[35] = test system: OVCAR-5 ovarian
[36] = test system: OVCAR-8 ovarian
[37] = test system: PC-3 prostate
[38] = test system: RPMI-8226 leukemia
[39] = test system: RXF 393 renal
[40] = test system: SF-268 CNS
[41] = test system: SF-295 CNS
[42] = test system: SF-539 CNS
[43] = test system: SK-MEL-2 melanoma
[44] = test system: SK-MEL-28 melanoma
[45] = test system: SK-MEL-5 melanoma
[46] = test system: SK-OV-3 ovarian
[47] = test system: SN12C renal
[48] = test system: SNB-19 CNS
[49] = test system: SNB-75 CNS
[50] = test system: SR leukemia
[51] = test system: SW-620 colon
[52] = test system: T-47D breast
[53] = test system: TK-10 renal
[54] = test system: U251 CNS
[55] = test system: UACC-257 melanoma
[56] = test system: UACC-62 melanoma
[57] = test system: UO-31 renal
[58] = test system: CCRF-CEM leukemia
[59] = test system: A498 renal

In the case of O=C(Nc1ccc2cc3ccccc3cc2c1)c1cc2c(cc1Cl)Sc1nccn1S2(=O)=O, the TGI [1] is reported as 30 µM, the TGI [2] is reported as greater than 100 µM and the TGI [3] is reported as greater than 100 µM. For the same compound, the TGI [4] was greater than 100 µM, the TGI [5] was greater than 100 µM and the TGI [6] was greater than 100 µM. For the same compound, the TGI [7] was greater than 100 µM, the TGI [8] was greater than 100 µM and the TGI [9] was 95.8 µM. It also gave a TGI [10] greater than 100 µM, a TGI [11] greater than 100 µM and a TGI [12] of 46.9 µM. For the same compound, the TGI [13] was greater than 100 µM, the TGI [14] was greater than 100 µM and the TGI [15] was greater than 100 µM. For the same compound, the TGI [16] was greater than 100 µM, the TGI [17] was greater than 100 µM and the TGI [18] was greater than 100 µM. It also gave a TGI [19] greater than 100 µM, a TGI [20] greater than 100 µM and a TGI [21] greater than 100 µM. For the same compound, the TGI [22] was greater than 100 µM, the TGI [23] was greater than 100 µM and the TGI [24] was 60.1 µM. The TGI [25] was greater than 100 µM, the TGI [26] was greater than 100 µM and the TGI [27] was greater than 100 µM. The TGI [28] was greater than 100 µM, the TGI [29] was greater than 100 µM and the TGI [30] was greater than 100 µM. It also gave a TGI [31] greater than 100 µM, a TGI [32] greater than 100 µM and a TGI [33] greater than 100 µM. The TGI [34] was greater than 100 µM, the TGI [35] was 93.5 µM and the TGI [36] was greater than 100 µM. It also gave a TGI [37] of 52.6 µM, a TGI [38] greater than 100 µM and a TGI [39] greater than 100 µM. It also gave a TGI [40] of 97.6 µM, a TGI [41] greater than 100 µM and a TGI [42] of 33.8 µM. It also gave a TGI [43] greater than 100 µM, a TGI [44] greater than 100 µM and a TGI [45] greater than 100 µM. It also gave a TGI [46] greater than 100 µM, a TGI [47] greater than 100 µM and a TGI [48] greater than 100 µM. For the same compound, the TGI [49] was 81.2 µM, the TGI [50] was greater than 100 µM and the TGI [51] was greater than 100 µM. The TGI [52] was greater than 100 µM, the TGI [53] was 70.7 µM and the TGI [54] was greater than 100 µM. It also gave a TGI [55] greater than 100 µM, a TGI [56] greater than 100 µM and a TGI [57] greater than 100 µM.
Work on Cc1ccc(SCC(OCn2cnc3c(Cl)nc(N)nc32)[C@H](C)F)cc1 (some centres undefined) yielded a TGI [1] greater than 100 µM, a TGI [2] greater than 100 µM and a TGI [3] greater than 100 µM. It also gave a TGI [4] greater than 100 µM, a TGI [5] greater than 100 µM and a TGI [58] greater than 100 µM. The TGI [6] was greater than 100 µM, the TGI [7] was greater than 100 µM and the TGI [9] was greater than 100 µM. It also gave a TGI [10] greater than 100 µM, a TGI [11] greater than 100 µM and a TGI [12] of 96.8 µM. For the same compound, the TGI [13] was greater than 100 µM, the TGI [14] was greater than 100 µM and the TGI [15] was greater than 100 µM. For the same compound, the TGI [16] was greater than 100 µM, the TGI [17] was greater than 100 µM and the TGI [19] was greater than 100 µM. It also gave a TGI [20] greater than 100 µM, a TGI [21] greater than 100 µM and a TGI [22] greater than 100 µM. For the same compound, the TGI [23] was greater than 100 µM, the TGI [24] was greater than 100 µM and the TGI [25] was greater than 100 µM. For the same compound, the TGI [26] was greater than 100 µM, the TGI [27] was greater than 100 µM and the TGI [28] was greater than 100 µM. For the same compound, the TGI [29] was greater than 100 µM, the TGI [30] was greater than 100 µM and the TGI [31] was 29.4 µM. It also gave a TGI [32] greater than 100 µM, a TGI [33] greater than 100 µM and a TGI [34] greater than 100 µM. For the same compound, the TGI [35] was greater than 100 µM, the TGI [36] was greater than 100 µM and the TGI [37] was greater than 100 µM. It also gave a TGI [38] greater than 100 µM, a TGI [40] greater than 100 µM and a TGI [41] greater than 100 µM. It also gave a TGI [42] greater than 100 µM, a TGI [43] greater than 100 µM and a TGI [44] greater than 100 µM. For the same compound, the TGI [45] was 47.6 µM, the TGI [46] was greater than 100 µM and the TGI [47] was greater than 100 µM. It also gave a TGI [48] greater than 100 µM, a TGI [49] greater than 100 µM and a TGI [50] greater than 100 µM. The TGI [51] was greater than 100 µM, the TGI [52] was greater than 100 µM and the TGI [53] was greater than 100 µM. For the same compound, the TGI [54] was greater than 100 µM, the TGI [55] was greater than 100 µM and the TGI [56] was greater than 100 µM. The TGI [57] was greater than 100 µM.
Work on CC(=O)c1c(O)n(-c2ccc(C)cc2)c(=O)c2c(N)n[nH]c12 yielded a TGI [1] greater than 100 µM, a TGI [59] greater than 100 µM and a TGI [2] greater than 100 µM. The TGI [4] was greater than 100 µM, the TGI [5] was greater than 100 µM and the TGI [58] was greater than 100 µM. It also gave a TGI [6] greater than 100 µM, a TGI [7] greater than 100 µM and a TGI [8] greater than 100 µM. It also gave a TGI [9] greater than 100 µM, a TGI [10] greater than 100 µM and a TGI [11] greater than 100 µM. The TGI [12] was greater than 100 µM, the TGI [15] was greater than 100 µM and the TGI [16] was greater than 100 µM. The TGI [17] was greater than 100 µM, the TGI [18] was greater than 100 µM and the TGI [19] was greater than 100 µM. It also gave a TGI [20] greater than 100 µM, a TGI [21] greater than 100 µM and a TGI [22] greater than 100 µM. For the same compound, the TGI [23] was greater than 100 µM, the TGI [24] was greater than 100 µM and the TGI [25] was greater than 100 µM. It also gave a TGI [26] greater than 100 µM, a TGI [27] greater than 100 µM and a TGI [28] greater than 100 µM. It also gave a TGI [29] greater than 100 µM, a TGI [30] greater than 100 µM and a TGI [31] greater than 100 µM. For the same compound, the TGI [32] was greater than 100 µM, the TGI [33] was greater than 100 µM and the TGI [34] was greater than 100 µM. The TGI [35] was greater than 100 µM, the TGI [36] was greater than 100 µM and the TGI [37] was greater than 100 µM. For the same compound, the TGI [38] was greater than 100 µM, the TGI [39] was greater than 100 µM and the TGI [40] was greater than 100 µM. For the same compound, the TGI [42] was greater than 100 µM, the TGI [43] was greater than 100 µM and the TGI [44] was greater than 100 µM. For the same compound, the TGI [45] was greater than 100 µM, the TGI [46] was greater than 100 µM and the TGI [47] was greater than 100 µM. For the same compound, the TGI [48] was greater than 100 µM, the TGI [49] was greater than 100 µM and the TGI [50] was greater than 100 µM. The TGI [51] was greater than 100 µM, the TGI [52] was greater than 100 µM and the TGI [53] was greater than 100 µM. For the same compound, the TGI [54] was greater than 100 µM, the TGI [55] was greater than 100 µM and the TGI [56] was greater than 100 µM. It also gave a TGI [57] greater than 100 µM.
In the case of NCCNC(=O)CN(CC(=O)O)C1CCCCC1N(CC(=O)O)CC(=O)O (centres undefined), the TGI [1] is reported as greater than 100 µM, the TGI [59] is reported as greater than 100 µM and the TGI [2] is reported as greater than 100 µM. It also gave a TGI [3] greater than 100 µM, a TGI [4] greater than 100 µM and a TGI [5] greater than 100 µM. For the same compound, the TGI [58] was greater than 100 µM, the TGI [6] was greater than 100 µM and the TGI [7] was greater than 100 µM. The TGI [8] was greater than 100 µM, the TGI [9] was greater than 100 µM and the TGI [10] was greater than 100 µM. It also gave a TGI [11] greater than 100 µM, a TGI [12] greater than 100 µM and a TGI [13] greater than 100 µM. For the same compound, the TGI [14] was greater than 100 µM, the TGI [15] was greater than 100 µM and the TGI [16] was greater than 100 µM. It also gave a TGI [17] greater than 100 µM, a TGI [18] greater than 100 µM and a TGI [19] greater than 100 µM. For the same compound, the TGI [20] was greater than 100 µM, the TGI [21] was greater than 100 µM and the TGI [22] was greater than 100 µM. It also gave a TGI [23] greater than 100 µM, a TGI [24] greater than 100 µM and a TGI [25] greater than 100 µM. It also gave a TGI [26] greater than 100 µM, a TGI [27] greater than 100 µM and a TGI [28] greater than 100 µM. For the same compound, the TGI [29] was greater than 100 µM, the TGI [30] was greater than 100 µM and the TGI [31] was greater than 100 µM. The TGI [32] was greater than 100 µM, the TGI [33] was greater than 100 µM and the TGI [34] was greater than 100 µM. For the same compound, the TGI [35] was greater than 100 µM, the TGI [36] was greater than 100 µM and the TGI [37] was greater than 100 µM. It also gave a TGI [40] greater than 100 µM, a TGI [41] greater than 100 µM and a TGI [42] greater than 100 µM. The TGI [43] was greater than 100 µM, the TGI [44] was greater than 100 µM and the TGI [45] was greater than 100 µM. The TGI [46] was greater than 100 µM, the TGI [47] was greater than 100 µM and the TGI [48] was greater than 100 µM. The TGI [49] was 94.9 µM, the TGI [50] was greater than 100 µM and the TGI [51] was greater than 100 µM. The TGI [52] was greater than 100 µM, the TGI [53] was greater than 100 µM and the TGI [54] was greater than 100 µM. For the same compound, the TGI [55] was greater than 100 µM, the TGI [56] was greater than 100 µM and the TGI [57] was greater than 100 µM.
